Test results taken from patent US7935688B2, “Vitamin D-like compound” (Chugai Seiyaku Kabushiki Kaisha, priority 2005, dated 2011).

Tested on: osteocalcin production in MG-63 cells
Assay: Osteocalcin production in MG-63 cells (Gla-type Osteocalcin EIA)
Type: cell-based, human
Details: (EC50 value of 1,25(OH)2D3/EC50 value of each compound)×100; eight hours exposure, then four days culture
Description: mg-63 was obtained from Institute for Fermentation, Osaka as a human osteoblast-like cell line. MG-63 cells were maintained and cultured in a MEM medium (Minimum essential medium; pH 7.0; Invitrogen Corporation, Carlsbad, Calif., USA) containing 5% fetal bovine serum (FBS; HyClone, Logan, Utah, USA).
MG-63 cells were adjusted to a density of 4.0×10^4 cells/mL, plated in a 96-well plate at 200 μL per well, and cultured under conditions of 37° C. and 5% carbon dioxide for 24 hours.
After removing the medium, MEM containing 5% charcoal/dextran treated FBS (DCC-FBS; Hyclone, Logan, Utah, USA) was added at 180 μL/well. The test substance (1.0×10^−3 mol/L) was diluted with dimethyl sulfoxide (DMSO) to 1.0×10^−4 mol/L, 1.0×10^−5 mol/L, 1.0×10^−6 mol/L, 1.0×10^−7 mol/L and 1.0×10^−8 mol/L. 1,25(OH)2D3 was used as a positive control. Like the test substance, 1,25(OH)2D3 was diluted with DMSO. 0.02 mL of the positive control and the test substance diluted 100-fold with MEM containing 5% DCC-FCS was added to each well of the 96-well plate, so that the final drug concentration was 1.0×10^−6 mol/L to 1.0×10^−11 mol/L. Thereafter, the cells were cultured under conditions of 37° C. and 5% carbon dioxide for eight hours.
After culturing for eight hours, the medium was removed, and MEM containing 5% DCC-FBS was added at 0.2 mL per well. The cells were cultured under conditions of 37° C. and 5% carbon dioxide for four days, and the medium was recovered. The medium was stored at −80° C. until osteocalcin measurement.
The Gla-type Osteocalcin EIA kit (Takara Bio Inc., Tokyo, Japan) was used for measurement of osteocalcin. Measurement was carried out using a microplate reader (Model 3550, Bio-Rad Laboratories, Inc., Hercules, Calif., USA) at a wavelength of 450 nm, and the results were analyzed by Microplate Manager III (Bio-Rad Laboratories, Inc., ver. 1.57).
The median effective concentration (EC50) was calculated from the osteocalcin concentration. Potency of induction of each compound was calculated as a ratio of EC50 of 1,25(OH)2D3 to EC50 of the compound. The relation between diseases and induction of osteocalcin production is described in Lancet (1984 May 19), 1 (8386), 1091-3; Steroids 66, 159-170 (2001); and Journal of Steroid Biochemistry & Molecular Biology 89-90, 269-271 (2004), for example.
The osteocalcin production level in MG-63 cells (%) was calculated by the formula: (EC50 value of 1,25(OH)2D3/EC50 value of each compound)×100.

Row | Structure (SMILES) | Osteocalcin production level in MG-63 cells (%)
1 | CCC(CC)(c1ccc(C#CC(O)(C(F)(F)F)C(F)(F)F)c(C)c1)c1ccc(-c2ccc(CC(=O)O)c(F)c2)c(C)c1 [Example 78, (4′-{1-ethyl-1-[3-methyl-4-(4,4,4-trifluoro-3-hydroxy-3-trifluoromethyl-1-butynyl)-phenyl]-propyl}-3-fluoro-2′-methyl-biphenyl-4-yl)-acetic Acid] | 617
2 | CCC(O)(/C=C/c1ccc(C(CC)(CC)c2ccc(-c3ccc(CC(=O)O)cc3)c(C)c2)cc1C)CC [Example 22, (E)-(4′-{1-ethyl-1-[4-(3-ethyl-3-hydroxy-1-pentenyl)-3-methyl-phenyl]-propyl}-2′-methyl-biphenyl-4-yl)-acetic Acid] | 1044
3 | CCC(CC)(c1ccc(OCC(O)C(C)(C)C)c(C)c1)c1ccc(-c2ccc(CC(=O)O)cn2)c(C)c1 (centres unmarked) [Example 101, [6-(4-{1-ethyl-1-[4-(2-hydroxy-3,3-dimethyl-butoxy)-3-methyl-phenyl]-propyl}-2-methyl-phenyl)-pyridin-3-yl]-acetic Acid] | 508
4 | CCC(CC)(c1ccc(/C=C/C(O)(C(F)(F)F)C(F)(F)F)c(C)c1)c1ccc(-c2ccc(CC(=O)O)c(F)c2)c(C)c1 [Example 72, (4′-{1-ethyl-1-[3-methyl-4-((E)-4,4,4-trifluoro-3-hydroxy-3-trifluoromethyl-1-butenyl)-phenyl]-propyl}-3-fluoro-2′-methyl-biphenyl-4-yl)-acetic Acid] | 1624
5 | CCC(CC)(c1ccc(/C=C/C(O)(C(F)(F)F)C(F)(F)F)c(C)c1)c1ccc(-c2ccc(CC(=O)O)c(Cl)c2)c(C)c1 [Example 73, (3-chloro-4′-{1-ethyl-1-[3-methyl-4-((E)-4,4,4-trifluoro-3-hydroxy-3-trifluoromethyl-1-butenyl)-phenyl]-propyl}-2′-methyl-biphenyl-4-yl)-acetic Acid] | 1595
6 | CCC(CC)(c1ccc(CCC(O)C(C)(C)C)c(C)c1)c1ccc(-c2cccc(CC(=O)O)c2)c(C)c1 (single isomer, unassigned) [Example 14, (4′-{1-ethyl-1-[4-(3-hydroxy-4,4-dimethyl-pentyl)-3-methyl-phenyl]-propyl}-2′-methyl-biphenyl-3-yl)-acetic Acid] | 161
7 | CCC(CC)(c1ccc(CCC(O)C(C)(C)C)c(C)c1)c1ccc(-c2ccc(CC(=O)O)cn2)c(C)c1 (single isomer, unassigned) [Example 23, [6-(4-{1-ethyl-1-[4-(3-hydroxy-4,4-dimethyl-pentyl)-3-methyl-phenyl]-propyl}-2-methyl-phenyl)-pyridin-3-yl]-acetic Acid] | 3264
8 | CCC(CC)(c1ccc(/C=C/C2(O)CCCCC2)c(C)c1)c1ccc(-c2ccc(CC(=O)O)cc2)c(C)c1 [Example 56, (E)-[4′-(1-ethyl-1-{4-[2-(1-hydroxy-cyclohexyl)-vinyl]-3-methyl-phenyl}-propyl)-2′-methyl-biphenyl-4-yl]-acetic Acid] | 1379
9 | CCC(CC)(c1ccc(-c2cncc(CC(=O)O)c2)cc1)c1ccc(C#CC2(O)CCCCC2)c(C)c1 [Example 147, [5-(4-{1-ethyl-1-[4-(1-hydroxy-cyclohexylethynyl)-3-methyl-phenyl]-propyl}-phenyl)-pyridin-3-yl]-acetic Acid] | 1228
10 | CCC(CC)(c1ccc(-c2cncc(CC(=O)O)c2)cc1)c1ccc(CCC2(O)CCCC2)c(C)c1 [Example 150, {5-[4-(1-ethyl-1-{4-[2-(1-hydroxy-cyclopentyl)-ethyl]-3-methyl-phenyl}-propyl)-phenyl]-pyridin-3-yl}-acetic Acid] | 645
11 | CCC(CC)(c1ccc(/C=C/C2(O)CCCC2)c(C)c1)c1ccc(-c2ccc(CC(=O)O)cc2)c(C)c1 [Example 53, (E)-[4′-(1-Ethyl-1-{4-[2-(1-hydroxy-cyclopentyl)-vinyl]-3-methyl-phenyl}-propyl)-2′-methyl-biphenyl-4-yl]-acetic Acid] | 772
12 | CCC(CC)(c1ccc(C#CC(O)(C(F)(F)F)C(F)(F)F)c(C)c1)c1ccc(-c2ccc(CC(=O)O)cc2)c(C)c1 [Example 45, (4′-{1-ethyl-1-[3-methyl-4-(4,4,4-trifluoro-3-hydroxy-3-trifluoromethyl-1-butynyl)-phenyl]-propyl}-2′-methyl-biphenyl-4-yl)-acetic Acid] | 546
13 | CCC(CC)(c1ccc(-c2cncc(CC(=O)O)c2)cc1)c1ccc(C#CC2(O)CCCC2)c(C)c1 [Example 148, [5-(4-{1-ethyl-1-[4-(1-hydroxy-cyclopentylethynyl)-3-methyl-phenyl]-propyl}-phenyl)-pyridin-3-yl]-acetic Acid] | 1022
14 | CCC(O)(/C=C/c1ccc(C(CC)(CC)c2ccc(-c3ccc(CC(=O)[O-])c(F)c3)c(C)c2)cc1C)CC.[Na+] [Example 48, Sodium (4′-{1-ethyl-1-[4-((E)-3-ethyl-3-hydroxy-1-pentenyl)-3-methyl-phenyl]-propyl}-3-fluoro-2′-methyl-biphenyl-4-yl)-acetate] | 508
15 | CCC(CC)(c1ccc(CCC(O)C(C)(C)C)c(C)c1)c1ccc(-c2ccc(CC(=O)O)c(Cl)c2)c(C)c1 (centres unmarked) [Example 61, (4′-{1-ethyl-1-[4-(3-hydroxy-4,4-dimethyl-pentyl)-3-methyl-phenyl]-propyl}-3-chloro-2′-methyl-biphenyl-4-yl)-acetic Acid] | 956
16 | CCC(CC)(c1ccc(CCC(O)C(C)(C)C)c(C)c1)c1ccc(-c2ccc(CC(=O)O)cc2)c(C)c1 (single isomer, unassigned) [Example 13, (4′-{1-ethyl-1-[4-(3-hydroxy-4,4-dimethyl-pentyl)-3-methyl-phenyl]-propyl}-2′-methyl-biphenyl-4-yl)-acetic Acid] | 401
17 | CCC(CC)(c1ccc(/C=C/C2(O)CCCCC2)c(C)c1)c1ccc(-c2ccc(CC(=O)O)c(F)c2)c(C)c1 [Example 88, [4′-(1-ethyl-1-{4-[(E)-2-(1-hydroxy-cyclohexyl)-vinyl]-3-methyl-phenyl}-propyl)-3-fluoro-2′-methyl-biphenyl-4-yl]-acetic Acid] | 4562
18 | CCC(CC)(c1ccc(CCC(O)C(C)(C)C)c(C)c1)c1ccc(-c2cncc(CC(=O)O)c2)c(C)c1 (single isomer, unassigned) [Example 24, [5-(4-{1-ethyl-1-[4-(3-hydroxy-4,4-dimethyl-pentyl)-3-methyl-phenyl]-propyl}-2-methyl-phenyl)-pyridin-3-yl]-acetic Acid] | 660
19 | CCC(CC)(c1ccc(OCC(O)C(C)(C)C)c(C)c1)c1ccc(-c2ccc(CC(=O)O)c(F)c2)c(C)c1 (centres unmarked) [Example 100, (4′-{1-ethyl-1-[4-(2-hydroxy-3,3-dimethyl-butoxy)-3-methyl-phenyl]-propyl}-3-fluoro-2′-methyl-biphenyl-4-yl)-acetic Acid] | 878
20 | CCC(CC)(c1ccc(OCC(O)CO)c(C)c1)c1ccc(OCC(O)C(C)(C)C)c(C)c1 (centres unmarked) [LG190178, reference compound] | 185
21 | CCC(CC)(c1ccc(/C=C/C(O)(C(F)(F)F)C(F)(F)F)c(C)c1)c1ccc(-c2ccc(CC(=O)O)cc2)c(C)c1 [Example 46, (4′-{1-ethyl-1-[3-methyl-4-((E)-4,4,4-trifluoro-3-hydroxy-3-trifluoromethyl-1-butenyl)-phenyl]-propyl}-2′-methyl-biphenyl-4-yl)-acetic Acid] | 2233
22 | CCC(CC)(c1ccc(CCC(O)C(C)(C)C)c(C)c1)c1ccc(-c2ccc(CC(=O)O)c(F)c2)c(C)c1 (centres unmarked) [Example 60, (4′-{1-ethyl-1-[4-(3-hydroxy-4,4-dimethyl-pentyl)-3-methyl-phenyl]-propyl}-3-fluoro-2′-methyl-biphenyl-4-yl)-acetic Acid] | 3798
23 | CCC(CC)(c1ccc(/C=C/C2(O)CCCC2)c(C)c1)c1ccc(-c2ccc(CC(=O)[O-])c(F)c2)c(C)c1.[Na+] [Example 84, Sodium [4′-(1-ethyl-1-{4-[(E)-2-(1-hydroxy-cyclopentyl)-vinyl]-3-methyl-phenyl}-propyl)-3-fluoro-2′-methyl-biphenyl-4-yl]-acetate] | 739
